Source: patent US10022342B2, “Methods and compositions for treating multiple myeloma” (Ohio State Innovation Foundation, priority 2015, dated 2018)

Assays:
histone 3 and 4 = assay: Immunoblot of acetyl histone H3 and H4 in MM.1S cells; assay type: cell-based, human; conditions: 0.1 μM, 24-hr
Description: Growth inhibitory and pro-apoptotic properties of AR-42 as a single agent treatment agent have been reported previously in numerous malignancies, including MM. Because of the potent immunomodulatory effects observed with classical pan-HDACi's, immunology-related gene networks altered upon AR-42 treatment in MM cells were investigated using nCounter technology to analyze the effects of AR-42 on the expression of 511 human genes in MM.1S cells following 24-hr treatment with 0.1 μM AR-42.
(§1) Cells were harvested by centrifugation, washed with PBS and lysed using buffer composed of 50 mM Tris (pH 7.5), 150 mM NaCl, 10% glycerol, 1.0% NP-40, 0.1% SDS, supplemented with protease and phosphatase inhibitors. Protein concentrations were estimated by Bradford assay and equivalent quantities of the lysates were resolved on 4-20% Tris-HCl SDS-PAGE TGX gels (Bio-Rad). Proteins were transferred to nitrocellulose membranes and stained for acetyl-histone H3 (Milipore), acetyl-histone H4 (Milipore), IGF2BP1 (Cell Signaling Technology), IGF2BP3 (IMP-3, Santa Cruz Biotechnology), CD44 (Santa Cruz Biotechnology), CD48 (Abcam), Drosha (Cell Signaling Technology), or glyceraldehyde 3-phosphate dehydrogenase (GAPDH, Cell Signaling Technology), followed by anti-mouse, or anti-rabbit IgG-HRP (GE Healthcare). Signals were developed using Pierce ECL Western Blotting Substrate (Thermo Fisher Scientific).

CD48 = CD48 protein and mRNA expression in MM.1S cells; assay type: cell-based, human; conditions: 48 hours
Description: The down-regulation of CD44 cell surface expression was also observed by flow cytometry in all MM cell lines tested expressing detectable CD44 levels (FIG. 1D, FIGS. 2E-2F and data not shown).
as §1

MM cells = assay: IC50 concentrations of HDAC inhibitors in MM cells; assay type: cell-based; conditions: Homo sapiens
CD44 = CD44 levels in MM.1S subcutaneous xenograft mice (IHC, serum ELISA); assay type: in vivo; conditions: 25 mg/kg, 2 injections
Description: To investigate if AR-42 treatment could affect CD44 expression in vivo, a xenograft MM mouse model was created by injecting 1×10^7 viable cells of MM.1S cell line subcutaneously into the right flank of 12 NOD-SCID mice. […] One group of mice (n=4) received intra-peritoneal injections of 25 mg/kg AR-42, while the second group (n=4) was injected with vehicle control (8% DMSO in PBS; Ctrl). Injections were administered once a day (on Monday and Wednesday). Because the anti-tumor activity of AR-42 has been previously reported in preclinical mouse studies, mice were sacrificed 2 days after the second injection in order to avoid tumor size reduction. […] Tumors were excised and used for CD44 immunohistochemical (IHC) studies, while the serum was collected for ELISA assays. […] Thus, AR-42 down-regulates CD44 directly in vivo.
Blood from xenografted mice (0.6 ml/kg) was collected by retro-orbital bleeding and serum was obtained by centrifuging it at 1500×g for 10 min. […] Finally, 100 […] of Stop Reagent was added and absorbance was read on a spectrophotometer at 450 nm. Soluble CD44 (sCD44) content was calculated based on the readings from the standard and sample dilution factor.
Animal experiments were performed according to OSU institutional guidelines. […] The tumor size was measured once a week using a caliper, and the volume was calculated in cubed millimeters (mm3), using the formula L×W2/2. […]

SMILES: CC(C)[C@H](C(=O)Nc1ccc(C(=O)NO)cc1)c1ccccc1 [AR-42, (S)-N-hydroxy-4-(3-methyl-2-phenylbutanamido)benzamide]
- hyperacetylation of histone 3 and 4 (histone 3 and 4): detectable hyperacetylation
- CD48 protein and mRNA levels (CD48): consistent up-regulation
- IC50 (MM cells): 0.2 µM
- soluble CD44 in serum (ELISA) (CD44): decreased levels
- CD44 staining of tumor sections (IHC) (CD44; vs control group): significant lower CD44 staining
